Measured values published in patent publication US9163020B2, “Azaindole compounds, synthesis thereof, and methods of using the same” (Global Alliance for TB Drug Development, priority 2013, dated 2015).
Values after ≈ are worked out from the molar mass of the structure shown.

How the values were obtained:
[1] = in vivo; settings: BALB/c, mouse, 100 mg/kg; for AUC(0-inf) / Cmax: po; for AUC(0-inf): AUC0-∞
Procedure: ELF PK was performed in healthy mice (three mice/group) as described previously (Solapure et. al, 2013) after administration of a single oral dose of 100 mg/kg compound formulated in 0.5% HPMC, and 0.1% Tween 80 suspensions. […] Broncho-Alveolar Lavage (BAL) was performed after tracheotomy using 0.7 mL of ice-cold PBS. Urea estimation kit, DIUR-500 (Bio-assay Systems, U.S.A) was used for urea estimation in plasma and BAL samples. Volume of ELF was calculated after normalizing the urea concentration in BAL with that of plasma as described in Marry et. al, 2011. Plasma and BAL samples were stored at −20° C. until analysis using LC-MS/MS.
One mg/mL stock solution of each compound was prepared in Dimethylsulfoxide (DMSO) and diluted two-fold with acetonitrile. A sixteen point calibration curve was utilized for each analyte, and the standard curves ranged from 0.001 to 40 μg/mL. Plasma/BAL samples were precipitated by adding chilled acetonitrile (1:10 v/v) containing carbamazepine as internal standard (250 ng/mL). Samples were vortexed, and centrifuged at 4000 rpm for 30 min at 10° C. The resulting supernatant was mixed with mobile phase (50% acetonitrile in water with 0.1% formic acid). […] of sample was injected on to a liquid chromatographic system (Waters-ACQUTY UPLC) coupled to triple quadrupole mass spectrometer (Waters-ACQUTY-TQD; MS/MS). Samples were acquired in positive ion mode and detected by multiple reaction monitoring (MRM). Concentrations of the analyte were determined from a standard curve obtained by plotting known concentrations of the analyte against peak area ratios (analyte/internal standard peak response).
Volume of ELF in the BAL samples was calculated as volume of BAL multiplied by the ratio of urea concentrations in BAL and plasma as described (Solapure et. al, 2013; Marry et. al, 2011) The compound concentration in ELF was calculated by multiplying concentration in BAL samples by the ratio of BAL volume to the ELF volume. AUC0-∞ in plasma and ELF were calculated by Non-compartmental analysis WinNonlin Phoenix Software (version 6.2; Pharsight, USA). Free plasma AUC was calculated after multiplying concentrations at each time point by the free fraction in plasma. Lung ELF penetration ratio was calculated as a ratio of AUC0-∞ in ELF to free AUC0-∞ in free plasma/total plasma during the same time interval. This ratio, measured in healthy mice after single dose administration, was assumed to remain constant during multiple dose efficacy study in the infected mice. Sparse sample analysis in WinNonlin was used for estimating standard error (SE) associated with AUC estimate.

[2] = tested on: panel of human targets and cardiac channels
[3] = tested on: Mycobacterium tuberculosis (Mtb) H37Rv; assay: Mtb minimal bactericidal concentration (MBC), plating from MIC plates; format: cell-based; settings: Table 4, read-out: Mtb MBC
Procedure: Aliquots from sample wells (MIC and higher) from the MIC plates were diluted 1:10 and plated on 7H10 agar plates. Plates were incubated at 37° C. for 3-4 weeks, CFU was enumerated.

[4] = target: hERG (Homo sapiens, UniProt Q12809)
Chain of hERG (Q12809 whole entry): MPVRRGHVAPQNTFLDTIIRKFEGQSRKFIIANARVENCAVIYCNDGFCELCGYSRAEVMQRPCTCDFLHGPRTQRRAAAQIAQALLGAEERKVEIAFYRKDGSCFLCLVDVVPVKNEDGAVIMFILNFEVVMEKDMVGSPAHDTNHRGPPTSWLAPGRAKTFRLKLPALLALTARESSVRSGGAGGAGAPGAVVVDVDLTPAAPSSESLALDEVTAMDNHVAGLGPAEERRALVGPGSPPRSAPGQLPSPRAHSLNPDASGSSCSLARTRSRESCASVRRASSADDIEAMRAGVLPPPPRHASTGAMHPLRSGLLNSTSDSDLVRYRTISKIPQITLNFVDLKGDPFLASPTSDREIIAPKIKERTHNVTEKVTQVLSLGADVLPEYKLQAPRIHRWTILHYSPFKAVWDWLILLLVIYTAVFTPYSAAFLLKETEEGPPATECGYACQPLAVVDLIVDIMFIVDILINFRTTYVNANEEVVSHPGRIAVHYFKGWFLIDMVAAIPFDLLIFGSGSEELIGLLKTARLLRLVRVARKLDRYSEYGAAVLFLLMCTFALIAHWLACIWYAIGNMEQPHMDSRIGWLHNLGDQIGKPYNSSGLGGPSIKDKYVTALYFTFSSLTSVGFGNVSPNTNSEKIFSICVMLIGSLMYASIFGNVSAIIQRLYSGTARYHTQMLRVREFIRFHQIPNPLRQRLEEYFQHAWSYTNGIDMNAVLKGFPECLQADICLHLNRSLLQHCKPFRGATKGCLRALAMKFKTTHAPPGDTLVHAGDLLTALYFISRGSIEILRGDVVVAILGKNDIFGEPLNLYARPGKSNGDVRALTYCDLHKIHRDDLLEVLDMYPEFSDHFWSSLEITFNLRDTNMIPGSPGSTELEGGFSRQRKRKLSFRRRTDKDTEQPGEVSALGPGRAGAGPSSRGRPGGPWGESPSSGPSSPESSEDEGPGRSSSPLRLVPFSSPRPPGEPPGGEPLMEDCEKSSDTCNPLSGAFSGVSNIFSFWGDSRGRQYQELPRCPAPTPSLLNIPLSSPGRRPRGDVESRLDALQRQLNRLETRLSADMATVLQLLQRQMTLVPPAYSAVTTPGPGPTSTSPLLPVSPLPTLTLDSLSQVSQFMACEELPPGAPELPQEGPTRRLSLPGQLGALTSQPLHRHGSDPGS
Procedure: Compounds were tested on voltage-gated ion channels using the medium-throughput electrophysiology IonWorks™ device. […] For carrying out the experiment, a boat in the “Cells” position of the IonWorks™ instrument was loaded with the cell suspension, and a 96-well PBS destination plate was placed in the “Plate 1” position. A 384-well PatchPlate™ was placed in the IonWorks™ plenum and held in position using the plenum clamp. From this point the experiment progress is automated and ultimately reports a non-cumulative concentration-effect curve for test compound.

[5] = infected BALB/c mice, chronic efficacy, multiple oral doses 30 mg/kg, +ABT
[6] = in vivo; settings: BALB/c, mouse, po, 50 mg/kg
[7] = pH 7.4
Procedure: Octanol-water partition coefficient (Log D) based on the shake-flask principle has been measured as follows. The aqueous solution used was 10 mM sodium phosphate buffer pH 7.4. 20 μL of 10 mM compound dissolved in DMSO was taken in glass vial plate. DMSO was removed using GeneVac. 435 μL of octanol was added using Tomtec, stirred for 5 min to dissolve. Further mixing was done by inversion for 5 h at 25° C., subsequently centrifuged for 30 min at 3000 RPM. LC/UV/APPI/MS quantitation of both aqueous and octanol layers was carried out. Log D value was determined according to the following equation.

[8] = physchem; format: physicochemical; settings: 25 °C, pH 7.4, aqueous buffer, thermodynamic from solid
Procedure: Solubility of the compounds in 0.1M phosphate buffer, pH 7.4 was determined as described, Glyburide was used as QC standard in the assay. Briefly, compounds were diluted in ACN/water (40:60) to desired concentration, samples were dried using Genevac for 4 hrs and subsequently 800 μl of buffer was added. Compound containing plates were stirred for 24 hrs at 25° C. on Eppendorf Thermomix R at 750 rpm. Finally, compound concentration was estimated using UV and MS analysis.

[9] = 1 μM
Procedure: Viability of cryopreserved hepatocytes was determined using trypan blue and the cell conc. was adjusted to 10^6 cells per mL with buffer (KHB buffer). 1 μM compound (in Acetonitrile; 0.01% DMSO) was incubated with 500 μL of hepatocyte cells (1 million cells per mL) in a NUNC plate. […] Supernatants were analyzed using LC-MS/MS for substrate depletion.

[10] = in vitro; format: in vitro ADME; settings: pH 7.4; mouse microsomes; read-out: Mo micrsomal Clint
Procedure: 1 μM compound was incubated with 1 mg/mL of microsomes (Pooled HLM/MLM with 20 mg/ml protein cone.) at 37° C. in 166 μL of buffer (100 mM phosphate buffer, pH-7.4) containing 2 mM NADPH solution. 20 μL of incubation mix was quenched with 4 volumes chilled acetonitrile at different time points i.e. 0, 2, 5, 10, 20 and 30 min in a fresh 96 well plate. The quench plate was centrifuged at 4000 rpm for 15 min. 30 μL of supernatant was diluted to 300 μL with 50% acetonitrile in water and substrate depletion was analyzed using LC-MS/MS.

[11] = format: in vitro ADME; settings: pH 7.4
Procedure: 1 μM compound was incubated with 1 mg/mL of microsomes (Pooled HLM/MLM with 20 mg/ml protein cone.) at 37° C. in 166 μL of buffer (100 mM phosphate buffer, pH-7.4) containing 2 mM NADPH solution. […] The quench plate was centrifuged at 4000 rpm for 15 min. 30 μL of supernatant was diluted to 300 μL with 50% acetonitrile in water and substrate depletion was analyzed using LC-MS/MS.

[12] = in vitro; format: in vitro ADME; settings: plasma
Procedure: Protein binding is measured using the equilibrium dialysis technique. Compound is added to 10% plasma giving a concentration of 20 μM and dialysed with isotonic buffer for 18 hours at 37° C. The plasma and buffer solutions are analysed using generic LCUVMS and the first apparent binding constant for the compound derived. The binding constant is then used to determine the % free in 100% plasma.

For `COc1ncnc(Cn2cc(C(=O)NCCF)c3ncccc32)c1C` [Compound 3, N-(2-fluoroethyl)-1-((6-methoxy-5-methylpyrimidin-4-yl)methyl)-1H-pyrrolo[3,2-b]pyridine-3-carboxamide], the Kp ([1]; ELF penetration ratio (based on free plasma AUC)) was 7.29 to 26.1, the Kp ([1]; ELF penetration ratio (based on total plasma AUC)) was 0.6 to 1.97 and the AUC(0-inf) ([1]; ELF) was 713 ± 176 µM·h. It also gave an AUC(0-inf) ([1]; Plasma) of 573 ± 78.8 µM·h, an AUC(0-inf) ([1]; fPlasma) of 43.5 ± 5.96 µM·h and a Cmax ([1]; ELF) of 74 ± 3.77 µM. For the same compound, the Cmax ([1]; Plasma) was 63.8 ± 7.37 µM, the Cmax ([1]; fPlasma) was 4.85 ± 0.56 µM and the “Secondary pharmacology hits IC50” value [2] was “No significant hits”. For the same compound, the “in vitro safety profiling” value [2] was “no major safety liabilities”, the MBC [3] was 1.56 to 3.12 µM (≈ 0.536 to 1.07 µg/mL) and the hERG [4] was greater than 33 µM. For the same compound, the “% T > MIC” value [5] was 92%, the “% fT > MIC” value [5] was 29% and the AUC(0-inf) [6] was 106 ± 3.04 µM·h. For the same compound, the Cmax [6] was 17.8 ± 5.61 µM, the Tmax [6] was 4.33 ± 1.15 h and the half-life [6] was 143 ± 11.4 min. The logD [7] was 2.1, the solubility at 24 h [8] was 8 µM (≈ 2.75 µg/mL) and the “Human CLpred hepatocytes (% LBF)” value [9] was 6.0 % LBF. For the same compound, the “Rat CLpred hepatocytes (% LBF)” value [9] was 13 % LBF, the microsomal CLint [10] was 104 µL/min/mg and the “Human CLpred microsomes (% LBF)” value [11] was 10.4 % LBF. The fraction unbound at 18 h, 20 μM ([12]; human) was 0.05 to 0.22 and the “Human PPB (% free)” value [12] was 9.8 % free.
